Data set [1] is described as follows: Thiosemicarbazide (TSC) anticonvulsant test. The format is in vivo, mice (male albino, NMR-1 strain). As to conditions: Mus musculus, ip, 10 min, mice, abolition of tonic components, for compound 1 TSC given 10 min postdosing. Here is the method: (§1) Male albino mice (NMR-1 strain) weighing 28-32 gm were used in a mouse anticonvulsant and rotarod test. Each of the test compounds (n=0, 1 and 2) were dissolved in a 10% polyethylene glycol-400 saline solution and were administered intraperitoneally (i.p.). Convulsant agents were dissolved in saline solution, buffered with 15 mmol/l Tris-HCl, pH 7.4, except for bicuculline, which was first dissolved in 0.025N HCl, adjusting to pH 4 with a 0.15 mol/l citrate-phosphate buffer. The convulsant dose inducing seizures in 97% of mice (CD97) was determined and used in the pharmacological test. CD97 values obtained were: 85 for pentetrazol (PTZ), 15 for 4-aminopyridine (4-AP), 3.3 for bicuculline (BIC), 20 for thiosemicarbazide (TSC), and 2.0 for strychnine (STR) expressed as mg kg^-1. The time of peak drug effect was evaluated for each anticonvulsant before determining the dose-response curves. Convulsant agents were either injected subcutaneously (s.c. into the back of the neck (BIC, picrotoxin (PIC) and PTZ) or administered i.p. (4-AP, TSC and STR).
(§2) Abolition of the tonic components of the seizure was the end point, except for PTZ, where suppression of seizures of at least 5 seconds duration was considered the end point. […] The ED50, TD50 and 95% confidence intervals were calculated by the method of Litchfield and Wilcoxon. See Litchfield et al., J. Pharmacol. Exp. Ther. 96, 99 (1949).
(§3) (PTZ), 4aminopyridine (4AP), bicuculline (BIC), thiosemicarbazide (TSC),

Data set [2] in a line: Picrotoxin (PIC) anticonvulsant test. The format is in vivo, mice (male albino, NMR-1 strain). Here is the method: as §1, §2
(§4) strychnine (STR) and picrotoxin (PIC).

A short description of data set [3]: Maximal electroshock test (MES). It is filed as in vivo, mice (male albino, NMR-1 strain). Conditions: Mus musculus, ip, mice, at time of peak drug effect; 95% confidence interval. As to the method: as §1, §2
In a maximal electroshock test, maximal seizures were induced by application of an electrical current across the brain via carclip electrodes. The stimulus parameters for mice were 30-35 mA, A.C. in pulses of 60 Hz for 200 ms. Each compound was tested at the time of peak drug effect. The dose at which the hind limb tonic seizure was blocked in 50% of the animals (ED50 value) was determined by probit analysis.
as §3
(In the maximal electroshock model the usual endpoint is tonic extension of the hind limbs.)

Data set [4] can be described thus: Strychnine (STR) anticonvulsant test. Conditions: for ED50: Mus musculus, ip, read-out: ED50 STR. The format is in vivo, mice (male albino, NMR-1 strain). As to the method: as §1, §2, §4
Data set [5] in a line: Pentetrazol (PTZ) anticonvulsant test. The format is in vivo, mice (male albino, NMR-1 strain). Conditions: Mus musculus, ip, 10 min, mice; PTZ s.c.; suppression of seizures of at least 5 s; for compound 1 PTZ given 10 min postdosing (footnote d). As to the method:
as §1, §2
^a) Seizures provoked by: maximal electroshock (MES), pentetrazol
as §3

A short description of data set [6]: Solubility. It is filed as physicochemical. Here is the method: The solid formed was separated by means of filtration and washed with cold benzene. This solid is the DL-HEPA that crystallizes from benzene. […]. […] Fusion point was 91°-92° C. Yield was 20%.
While still warm, the mixture was carefully neutralized with a 5% sulfuric acid solution using litmus paper. Once neutralized, the mixture was extracted with 50 ml volumes of ethyl ether. The ether was distilled in a rotating evaporator, and the white solid residue was the DL-HEPP that crystallizes with water. […] Its fusion point is 101°-102° C.

The nature of data set [7]: Bicuculline (BIC) anticonvulsant test. It is filed as in vivo, mice (male albino, NMR-1 strain). As to conditions: Mus musculus, ip, mice; BIC s.c.; abolition of tonic components. As to the method: as §1, §2, §3
Data set [8] can be described thus: Accelerating rotarod ataxia test. The format is in vivo, mice (male albino, NMR-1 strain). As to the method:
as §1
In a rotarod test, separate groups of mice were trained to stay on an accelerating rotarod that rotated initially at 2.16 rpm, then increased in speed to reach 22.5 rpm in 4 min. The drum diameter was 2.8 cm. Trained animals were dosed with the test compound or drug vehicle and were tested at the time of peak drug effect to measure the effects of the drug on motor performance. The dose at which 50% of the animals fell off the rotarod (TD50 value) was determined by probit analysis.
^b) Accelerating rotarod.
In general terms: The rotarod test checks motor coordination on a turning rod.

The nature of data set [9]: 4-aminopyridine (4-AP) anticonvulsant test. The format is in vivo, mice (male albino, NMR-1 strain). Conditions: Mus musculus, ip, mice; 4-AP i.p.; abolition of tonic components. As to the method:
as §1, §2, §3

For data set [10] the following is noted: patients having grand mal seizures; cited from earlier work.
The conditions of data set [11]: data obtained from NIH, ADD program; cited from earlier work.
For data set [12] the following is noted: mice; cited from earlier work.
For data set [13] the following is noted: cats; cited from earlier work.
The conditions of data set [14]: in vivo; cited from earlier work.
The conditions of data set [15]: data obtained from NIH, ADD program; cited from earlier work. The source holds these as a separate data set.
The conditions of data set [16]: constant speed rotarod; data obtained from NIH, ADD program; cited from earlier work.
A short description of data set [17]: Convulsant dose inducing seizures in 97% of mice (CD97). The format is in vivo, mice (male albino, NMR-1 strain). As to the method: as §1
Data set [18] can be described thus: Preliminary test against convulsions provoked by pentylenetetrazol. The format is in vivo. Conditions: 100 mg kg^-1, i.p. The text has this: Phenyl alcohol amide derivatives of the foregoing compounds wherein n=0 to 2 may be synthesized by substitution of the ethyl group at the center of chirality by either a methyl or phenyl group. […] Substitution of ethyl by phenyl in the n=0 and n=1 produces a loss in anticonvulsant activity.

[19] abbreviates: administered i.p. (4-AP, TSC, STR).

The source of these data is patent US5463125A, “Phenyl alcohol amides having anticonvulsant activity” (priority 1993, dated 1995).

Molecules are shown by their SMILES. Where two headings read alike, the source gives them in different places.

Regarding `CCC(O)(C(N)=O)c1ccccc1` (racemic) [Compound 1, (±)-2-hydroxy-2-phenylbutyramide], the ED50 (commonly the midpoint of the dose-response relation) came to 47 mg/kg in [1]; 126 mg/kg in data set [3]; 56 mg/kg in data set [4]; 67 mg/kg in data set [5]; 29 mg/kg in data set [7]; 24 mg/kg in data set [9]. Besides, in data set [2] (at 80 mgkg^-1), the PIC effect entry is recorded as “No effects”. The “strychnine activity relative to the n=2 compound” value in data set [4] (comparison in words) is listed as “more than twice that of the n=2 compound”. The “solubility (insoluble in)” value in data set [6] was “insoluble in cold benzene or water”. For the same compound, in data set [6], the “solubility (soluble in)” value was “soluble in ethyl alcohol, chloroform and hot benzene”. This compound also showed a TD50 rotarod ataxia in data set [8] (accelerating rotarod, i.p., mice, compound 2 tested 30 min postdosing) of 132 mg/kg.
Regarding `CCC(O)(CC(N)=O)c1ccccc1` (racemic) [Compound 2, (±)-3-hydroxy-3-phenylpentamide], the ED50 in data set [1] was 43 mg/kg; in data set [3], 144 mg/kg; in data set [5], 63 mg/kg; in data set [7], 38 mg/kg; in [9], 19 mg/kg. For the same compound, in [2] (at 130 mgkg^-1, PIC administered 15 min postdosing), the “Maximum protection, PIC” value is 37%. Also, the picrotoxin test activity result in [2] (dose of 130 mg kg^-1) is on record as “active”. Moreover, in [4] (at 100 mgkg^-1, STR administered 15 min postdosing), the “Maximum protection, STR” value amounted to 30%. Further, the “solubility (insoluble in)” value in data set [6] was “insoluble in cold water”. For the same compound, the “solubility (soluble in)” value in [6] is “soluble in ethyl alcohol, benzene and hot water”. In data set [8] (in words), the “neurotoxicity in rotarod ataxia test” value is “unusually low neurotoxicity”. The TD50 in data set [8] (mouse, in vivo, ip, accelerating rotarod, i.p., mice, compound 2 tested 30 min postdosing, read-out: TD50 rotarod ataxia) is 214 mg/kg.
Regarding `CCC(O)(CCC(N)=O)c1ccccc1` (racemic) [Compound 3, (±)-4-hydroxy-4-phenylhexanamide], in data set [10], the clinical antiepileptic action entry was “potent clinical antiepileptic action”. Moreover, the median effective dose (ED50) in data set [1] came out at 73 mg/kg; in data set [3] it was 148 mg/kg; in data set [4] it was 106 mg/kg; in [5] it was 63 mg/kg; in data set [7] it was 30 mg/kg; in data set [9], 29 mg/kg. For the same compound, the PIC effect entry in data set [2] (at 120 mgkg^-1) was “No effects”. The “ED50 PTZ” value in [11] is 58 mg/kg. Besides, the “protection against seizures provoked by bicuculline” value in data set [12] is on record as “protects mice against seizures”. In addition, in data set [12], the “protection against seizures provoked by maximal electroshock” value is reported as “protects mice against seizures”. Further, the “protection against seizures provoked by pentetrazol” value in [12] was “protects mice against seizures”. Further, in data set [13], the “protection against hippocampal kindling” value is reported as “protects”. Also, the “profile of anticonvulsant activity” value in data set [14] was “broad profile of anticonvulsant activity”. Besides, in data set [8] (rotarod ataxia test), the TD50 worked out at 111. Further, the “ED50 MES” value in data set [15] is 147 mg/kg. Besides, the TD50 rotarod ataxia in data set [16] was 168 mg/kg.
Compound `Nc1ccncc1` [4-aminopyridine] displayed a CD97 in [17] (setting [19]) of 15 mg/kg.
`CN1CCc2cc3c(cc2[C@H]1[C@@H]1OC(=O)c2c1ccc1c2OCO1)OCO3` [bicuculline] came in with a CD97 in [17] (administered s.c. (PTZ, BIC)) of 3.3 mg/kg.
Consider `CC(O)(CC(N)=O)c1ccccc1` (stereo not drawn) [methyl group in the n=1 compound], for which the “anticonvulsant activity against pentylenetetrazol convulsions” value in [18] was “suppresses anticonvulsant activity”.
Still for that read-out and setting: as for `CC(O)(C(N)=O)c1ccccc1` (stereo not drawn) [n=0 derivative], the entry is “retains activity”; as for `CC(O)(CCC(N)=O)c1ccccc1` (stereo not drawn) [n=2 derivative], “conserves half-potency”.
Regarding `C1CCc2nnnn2CC1` [pentetrazol], in [17] (administered s.c. (PTZ, BIC)), the CD97 was 85 mg/kg.
Compound `O=C1C[C@@H]2OCC=C3CN4CC[C@]56c7ccccc7N1[C@H]5[C@H]2[C@H]3C[C@H]46` [strychnine] returned a CD97 in data set [17] (setting [19]) of 2.0 mg/kg.
On the same count and under the same terms, the result for `NNC(N)=S` [thiosemicarbazide] reads 20 mg/kg.
